PMC4858680, “A platinum-based hybrid drug design approach to circumvent acquired resistance to molecular targeted tyrosine kinase inhibitors” (Scientific Reports, 2016)
Like-named read-outs stand apart in the source and are kept apart here.

Assays:
[1] = system: EGFR(L747-T751del,Sins); assay type: binding; settings: 10 μM
[2] = target: T1, ERBB2 (Homo sapiens, UniProt P04626); assay type: binding; settings: for remaining binding at 10 µM: read-out: Percent control
T1 construct: purchased DiscoveRx KINOMEscan

[3] = target: ALK (Homo sapiens, UniProt Q9UM73); settings: 10 μM
[4] = target: T2, HCK (Homo sapiens, UniProt P08631); assay type: binding; settings: 10 μM
T2 construct: purchased DiscoveRx KINOMEscan

[5] = target: ROS1 (Homo sapiens, UniProt P08922); settings: 10 μM
[6] = target: T3, FLT3(K663D) (Homo sapiens, UniProt P36888, K663Q)
T3 sequence (P36888 564-993 K663Q limits assumed): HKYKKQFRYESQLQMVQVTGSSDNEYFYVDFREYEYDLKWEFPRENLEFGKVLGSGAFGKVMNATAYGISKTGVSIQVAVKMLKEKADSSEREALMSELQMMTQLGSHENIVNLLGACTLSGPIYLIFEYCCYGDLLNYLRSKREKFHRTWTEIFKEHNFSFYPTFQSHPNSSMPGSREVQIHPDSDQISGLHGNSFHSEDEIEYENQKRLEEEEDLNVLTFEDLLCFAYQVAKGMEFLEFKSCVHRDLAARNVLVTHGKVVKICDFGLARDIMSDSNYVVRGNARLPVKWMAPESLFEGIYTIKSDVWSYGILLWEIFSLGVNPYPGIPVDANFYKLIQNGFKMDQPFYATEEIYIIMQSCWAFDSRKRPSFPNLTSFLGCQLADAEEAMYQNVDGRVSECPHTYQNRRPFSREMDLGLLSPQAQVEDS

[7] = target: T4, EPHB2 (Homo sapiens, UniProt P29323); settings: 10 μM
T4 sequence (P29323 19-1055): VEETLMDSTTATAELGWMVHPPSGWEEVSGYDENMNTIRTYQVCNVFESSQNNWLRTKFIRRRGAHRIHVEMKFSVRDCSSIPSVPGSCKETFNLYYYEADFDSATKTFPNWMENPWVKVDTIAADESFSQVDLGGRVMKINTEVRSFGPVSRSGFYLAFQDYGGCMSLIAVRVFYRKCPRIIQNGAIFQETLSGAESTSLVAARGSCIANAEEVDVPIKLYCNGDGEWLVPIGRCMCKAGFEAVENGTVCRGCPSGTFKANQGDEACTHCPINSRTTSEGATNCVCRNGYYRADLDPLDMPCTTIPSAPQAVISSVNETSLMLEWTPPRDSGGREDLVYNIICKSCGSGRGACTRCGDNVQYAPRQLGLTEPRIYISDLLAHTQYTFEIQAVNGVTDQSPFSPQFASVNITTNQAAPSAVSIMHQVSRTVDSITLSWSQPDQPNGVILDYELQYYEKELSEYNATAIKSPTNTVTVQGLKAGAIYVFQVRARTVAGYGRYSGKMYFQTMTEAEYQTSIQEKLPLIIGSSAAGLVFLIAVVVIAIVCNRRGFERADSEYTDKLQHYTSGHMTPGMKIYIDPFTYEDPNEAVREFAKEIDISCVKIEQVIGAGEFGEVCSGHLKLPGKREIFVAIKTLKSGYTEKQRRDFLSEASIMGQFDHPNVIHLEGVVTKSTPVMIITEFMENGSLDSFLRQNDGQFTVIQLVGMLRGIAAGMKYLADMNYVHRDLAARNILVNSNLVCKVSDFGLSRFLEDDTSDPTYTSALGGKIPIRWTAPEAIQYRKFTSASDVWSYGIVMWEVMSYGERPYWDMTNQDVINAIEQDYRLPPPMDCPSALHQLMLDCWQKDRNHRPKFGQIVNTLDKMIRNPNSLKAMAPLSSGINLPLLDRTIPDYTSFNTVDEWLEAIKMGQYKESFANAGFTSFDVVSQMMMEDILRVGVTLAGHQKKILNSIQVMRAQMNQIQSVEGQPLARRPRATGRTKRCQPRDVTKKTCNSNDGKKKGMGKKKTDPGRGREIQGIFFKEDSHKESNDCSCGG

[8] = target: T5, EPHA1 (Homo sapiens, UniProt P21709); settings: 10 μM
T5 sequence (P21709 26-976): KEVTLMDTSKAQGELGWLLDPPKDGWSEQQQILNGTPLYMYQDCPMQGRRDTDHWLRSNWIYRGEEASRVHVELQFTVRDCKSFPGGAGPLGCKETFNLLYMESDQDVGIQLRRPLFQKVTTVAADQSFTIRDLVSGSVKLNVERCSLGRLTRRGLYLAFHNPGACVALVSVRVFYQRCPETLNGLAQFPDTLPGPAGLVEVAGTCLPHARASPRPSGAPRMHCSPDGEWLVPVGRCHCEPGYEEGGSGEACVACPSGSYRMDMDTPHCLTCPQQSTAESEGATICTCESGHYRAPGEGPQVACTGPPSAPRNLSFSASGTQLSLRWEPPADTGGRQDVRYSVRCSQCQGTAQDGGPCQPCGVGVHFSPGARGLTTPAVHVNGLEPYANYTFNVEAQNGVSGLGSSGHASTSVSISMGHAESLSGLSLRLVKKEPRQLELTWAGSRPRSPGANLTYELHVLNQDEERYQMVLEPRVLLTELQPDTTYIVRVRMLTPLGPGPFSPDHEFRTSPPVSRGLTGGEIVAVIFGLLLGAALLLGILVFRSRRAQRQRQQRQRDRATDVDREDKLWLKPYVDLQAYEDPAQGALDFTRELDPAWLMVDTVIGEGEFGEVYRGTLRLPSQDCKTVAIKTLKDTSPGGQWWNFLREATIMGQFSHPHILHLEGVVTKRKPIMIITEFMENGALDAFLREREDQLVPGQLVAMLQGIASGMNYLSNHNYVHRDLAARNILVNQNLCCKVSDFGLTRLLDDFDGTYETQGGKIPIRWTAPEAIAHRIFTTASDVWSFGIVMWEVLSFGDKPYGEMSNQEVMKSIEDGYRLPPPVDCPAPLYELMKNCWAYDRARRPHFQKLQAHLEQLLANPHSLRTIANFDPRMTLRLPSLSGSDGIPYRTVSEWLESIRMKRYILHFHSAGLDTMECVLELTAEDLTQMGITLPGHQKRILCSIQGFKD

T2 sequence (P08631 whole entry): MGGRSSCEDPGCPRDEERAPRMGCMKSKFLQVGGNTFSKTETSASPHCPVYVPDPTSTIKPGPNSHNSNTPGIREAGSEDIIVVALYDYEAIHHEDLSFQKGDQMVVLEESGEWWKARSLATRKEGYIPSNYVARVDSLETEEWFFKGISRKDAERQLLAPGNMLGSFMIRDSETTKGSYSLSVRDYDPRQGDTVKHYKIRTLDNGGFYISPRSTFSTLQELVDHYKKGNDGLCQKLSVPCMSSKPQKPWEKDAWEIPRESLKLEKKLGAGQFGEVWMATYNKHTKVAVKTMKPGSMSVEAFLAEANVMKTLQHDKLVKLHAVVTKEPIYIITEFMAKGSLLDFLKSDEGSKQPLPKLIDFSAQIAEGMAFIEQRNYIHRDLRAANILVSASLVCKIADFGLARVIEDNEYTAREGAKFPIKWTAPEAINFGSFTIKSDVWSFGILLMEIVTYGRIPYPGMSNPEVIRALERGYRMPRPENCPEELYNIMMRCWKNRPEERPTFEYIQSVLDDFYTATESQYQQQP
ROS1, sequence (P08922 28-2347): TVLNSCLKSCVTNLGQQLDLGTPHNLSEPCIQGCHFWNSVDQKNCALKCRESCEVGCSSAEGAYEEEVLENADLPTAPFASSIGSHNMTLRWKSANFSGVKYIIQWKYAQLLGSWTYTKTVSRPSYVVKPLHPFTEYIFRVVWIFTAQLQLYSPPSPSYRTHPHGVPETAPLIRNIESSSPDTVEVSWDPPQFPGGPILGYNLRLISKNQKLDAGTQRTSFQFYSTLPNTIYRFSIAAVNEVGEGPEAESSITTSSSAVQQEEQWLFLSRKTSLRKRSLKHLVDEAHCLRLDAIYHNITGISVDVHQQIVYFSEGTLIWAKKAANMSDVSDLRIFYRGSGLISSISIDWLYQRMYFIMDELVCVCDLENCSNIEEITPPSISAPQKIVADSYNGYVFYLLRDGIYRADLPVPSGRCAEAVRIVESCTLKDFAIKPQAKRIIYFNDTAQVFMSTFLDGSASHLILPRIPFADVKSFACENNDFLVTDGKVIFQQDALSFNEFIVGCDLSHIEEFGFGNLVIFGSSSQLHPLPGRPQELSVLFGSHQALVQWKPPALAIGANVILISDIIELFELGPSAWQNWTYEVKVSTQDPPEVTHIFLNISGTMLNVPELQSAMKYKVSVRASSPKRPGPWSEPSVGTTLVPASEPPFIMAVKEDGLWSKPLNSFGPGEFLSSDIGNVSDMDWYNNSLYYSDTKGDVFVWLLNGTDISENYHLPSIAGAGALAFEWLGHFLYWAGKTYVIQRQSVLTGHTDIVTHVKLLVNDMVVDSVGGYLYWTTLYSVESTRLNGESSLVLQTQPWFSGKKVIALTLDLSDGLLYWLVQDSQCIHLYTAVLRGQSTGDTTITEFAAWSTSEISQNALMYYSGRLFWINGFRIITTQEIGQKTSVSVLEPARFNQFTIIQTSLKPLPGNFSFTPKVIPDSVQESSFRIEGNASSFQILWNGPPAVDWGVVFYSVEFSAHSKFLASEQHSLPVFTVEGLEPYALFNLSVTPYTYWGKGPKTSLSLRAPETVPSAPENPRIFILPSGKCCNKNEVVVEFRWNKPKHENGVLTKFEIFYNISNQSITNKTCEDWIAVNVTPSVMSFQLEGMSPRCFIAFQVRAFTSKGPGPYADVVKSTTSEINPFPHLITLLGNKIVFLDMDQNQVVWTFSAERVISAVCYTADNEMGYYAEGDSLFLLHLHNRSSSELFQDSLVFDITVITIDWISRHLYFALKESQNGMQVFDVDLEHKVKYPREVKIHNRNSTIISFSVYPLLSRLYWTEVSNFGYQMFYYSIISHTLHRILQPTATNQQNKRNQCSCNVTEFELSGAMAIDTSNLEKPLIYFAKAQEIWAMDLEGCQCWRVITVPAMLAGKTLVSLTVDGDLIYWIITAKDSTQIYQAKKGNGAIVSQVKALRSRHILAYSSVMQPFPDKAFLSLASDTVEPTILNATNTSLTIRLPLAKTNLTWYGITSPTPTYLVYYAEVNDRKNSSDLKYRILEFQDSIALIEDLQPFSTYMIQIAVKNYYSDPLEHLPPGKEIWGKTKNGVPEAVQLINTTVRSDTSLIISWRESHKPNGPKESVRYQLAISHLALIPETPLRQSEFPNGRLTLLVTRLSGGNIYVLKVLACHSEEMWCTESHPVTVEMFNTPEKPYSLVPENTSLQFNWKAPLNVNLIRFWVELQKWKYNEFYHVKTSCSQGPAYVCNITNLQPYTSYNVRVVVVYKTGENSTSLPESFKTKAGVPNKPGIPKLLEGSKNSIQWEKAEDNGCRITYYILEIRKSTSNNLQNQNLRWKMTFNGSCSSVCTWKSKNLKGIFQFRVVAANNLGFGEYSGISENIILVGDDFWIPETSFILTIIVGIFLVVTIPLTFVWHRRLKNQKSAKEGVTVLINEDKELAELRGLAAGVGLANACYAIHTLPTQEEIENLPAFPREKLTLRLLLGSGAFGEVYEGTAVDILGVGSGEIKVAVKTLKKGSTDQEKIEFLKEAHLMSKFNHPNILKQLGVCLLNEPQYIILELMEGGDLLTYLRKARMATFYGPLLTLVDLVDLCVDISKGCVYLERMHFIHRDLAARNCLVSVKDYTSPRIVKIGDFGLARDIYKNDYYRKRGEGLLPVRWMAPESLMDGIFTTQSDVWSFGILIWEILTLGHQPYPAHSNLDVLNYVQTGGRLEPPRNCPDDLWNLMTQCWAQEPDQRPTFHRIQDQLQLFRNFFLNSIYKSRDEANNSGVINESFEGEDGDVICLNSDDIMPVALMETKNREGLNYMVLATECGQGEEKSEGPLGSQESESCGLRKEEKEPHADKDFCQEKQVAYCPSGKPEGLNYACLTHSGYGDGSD
ALK, sequence (Q9UM73 19-1620): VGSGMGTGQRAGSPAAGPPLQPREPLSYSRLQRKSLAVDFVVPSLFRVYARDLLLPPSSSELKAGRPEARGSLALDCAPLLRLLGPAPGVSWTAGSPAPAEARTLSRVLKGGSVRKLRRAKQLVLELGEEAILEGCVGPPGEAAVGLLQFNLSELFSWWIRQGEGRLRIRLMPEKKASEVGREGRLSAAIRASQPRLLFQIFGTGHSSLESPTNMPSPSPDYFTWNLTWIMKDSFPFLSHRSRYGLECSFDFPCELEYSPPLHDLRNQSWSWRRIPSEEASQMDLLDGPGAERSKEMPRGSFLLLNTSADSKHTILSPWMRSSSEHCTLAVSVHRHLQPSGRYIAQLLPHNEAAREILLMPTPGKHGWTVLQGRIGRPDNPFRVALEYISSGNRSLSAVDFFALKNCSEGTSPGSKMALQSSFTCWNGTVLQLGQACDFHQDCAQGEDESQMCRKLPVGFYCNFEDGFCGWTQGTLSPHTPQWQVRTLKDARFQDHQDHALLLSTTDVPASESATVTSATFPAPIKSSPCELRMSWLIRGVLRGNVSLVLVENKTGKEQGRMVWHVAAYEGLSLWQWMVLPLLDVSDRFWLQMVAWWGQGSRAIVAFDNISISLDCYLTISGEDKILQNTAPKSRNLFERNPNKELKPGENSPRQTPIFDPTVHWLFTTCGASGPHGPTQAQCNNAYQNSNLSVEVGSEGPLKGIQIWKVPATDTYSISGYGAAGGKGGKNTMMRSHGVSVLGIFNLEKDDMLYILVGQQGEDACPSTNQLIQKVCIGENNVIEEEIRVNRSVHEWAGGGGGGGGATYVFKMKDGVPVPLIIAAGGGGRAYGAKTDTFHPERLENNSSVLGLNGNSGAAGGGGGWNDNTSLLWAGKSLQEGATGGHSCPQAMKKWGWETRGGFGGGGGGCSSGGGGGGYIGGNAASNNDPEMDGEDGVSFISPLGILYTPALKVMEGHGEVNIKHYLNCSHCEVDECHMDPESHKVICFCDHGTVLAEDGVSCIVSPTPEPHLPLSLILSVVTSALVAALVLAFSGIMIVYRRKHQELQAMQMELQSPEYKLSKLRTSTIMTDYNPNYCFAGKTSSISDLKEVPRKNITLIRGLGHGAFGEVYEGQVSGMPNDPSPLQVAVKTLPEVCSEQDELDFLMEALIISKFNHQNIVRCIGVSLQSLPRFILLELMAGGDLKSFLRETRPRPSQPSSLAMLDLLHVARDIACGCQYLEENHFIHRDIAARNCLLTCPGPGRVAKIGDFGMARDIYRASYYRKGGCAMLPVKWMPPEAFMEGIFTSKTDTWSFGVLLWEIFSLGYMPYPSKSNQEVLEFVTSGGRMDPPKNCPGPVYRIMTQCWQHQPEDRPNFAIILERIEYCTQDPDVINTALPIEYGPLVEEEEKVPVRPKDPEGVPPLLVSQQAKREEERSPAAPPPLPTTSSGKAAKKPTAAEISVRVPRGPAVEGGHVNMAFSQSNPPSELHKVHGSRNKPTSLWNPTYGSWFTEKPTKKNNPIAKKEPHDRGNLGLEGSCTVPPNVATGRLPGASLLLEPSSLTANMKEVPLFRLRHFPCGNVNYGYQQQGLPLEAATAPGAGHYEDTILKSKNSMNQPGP

Compound `C#Cc1cccc(Nc2ncnc3cc(OCCOC)c(OCCOC)cc23)c1` [Erlotinib] has a Percent control [1] of 0.0% and a remaining binding at 10 µM [2] of 22.5%.
`Cc1ccc(NC(=O)c2ccc(CN3CCN(C)CC3)cc2)cc1Nc1nccc(-c2cccnc2)[n+]1[Pt-2]1([Cl])[NH2+]C2CCCCC2[NH2+]1` (stereo not drawn) [1b, oxaliplatin-imatinib] was tested, and the Percent control [3] was 99%, the Percent control [4] was 82% and the Percent control [1] was 76%. For the same compound, the Percent control [5] was 32%, the Percent control ([6]; FLT3(K663D), 10 μM) was 84% and the Percent control [7] was 95%. The Percent control [8] was 86% and the Percent control ([2]; ERBB2, 10 μM) was 82%.
`COc1cc2c(Nc3ccc(Br)cc3F)ncnc2cc1OCC1CCN(C)CC1` [Vandetanib, reference compound] showed a Percent control [1] of 0.1% and a remaining binding at 10 µM ([2]; ERBB2, 10 μM) of 20.6%.
In the case of `COc1cc2c(Nc3ccc(Br)cc3F)[n+]([Pt-2]3([Cl])[NH2+]C4CCCCC4[NH2+]3)cnc2cc1OCC1CCN(C)CC1` (stereo not drawn) [3b, oxaliplatin-vandetanib], the Percent control [5] is reported as 74%, the Percent control [6] is reported as 43 and the Percent control [7] is reported as 69%. For the same compound, the Percent control [8] was 11%.
With `C#Cc1cccc(Nc2c3cc(OCCOC)c(OCCOC)cc3nc[n+]2[Pt@SP2-2]([NH3+])([NH3+])[Cl])c1` [2a, cisplatin-erlotinib] the Percent control [3] was 79%, the Percent control [4] was 64% and the Percent control [5] was 91%. It also gave a Percent control [6] of 67, a Percent control [7] of 94% and a Percent control [8] of 73%. For the same compound, the Percent control ([2]; ERBB2, 10 μM) was 21%.
Work on `Cc1ccc(NC(=O)c2ccc(CN3CCN(C)CC3)cc2)cc1Nc1nccc(-c2cccnc2)n1` [Imatinib, reference compound] yielded a Percent control [3] of 100%, a Percent control [4] of 100% and a Percent control [1] of 100%. It also gave a Percent control [5] of 100%, a Percent control ([6]; FLT3(K663D), 10 μM) of 100% and a Percent control [8] of 100%. For the same compound, the Percent control ([2]; ERBB2, 10 μM) was 100%.
